Holding throughout (assay): NCI-60 cell line screen, 48 h
Assay [1] relates to RPMI-8226.
In assay [2] the test system is BT-549.
For assay [3], the system named is K562.
Assay [4] has as its system ACHN.
Assay [5] deals with NCI-H522.
The test system of assay [6] is MDA-N.
Assay [7] deals with UACC-62.
The test system of assay [8] is LOX IMVI.
Assay [9] deals with A549.
For assay [10], the system named is LXFL 529.
Assay [11] deals with NCI-H226.
Assay [12] concerns SK-OV-3.
Assay [13] has as its system IGROV-1.
Assay [14] has as its system SNB-75.
Assay [15] has as its system SNB-19.
Assay [16] concerns SW-620.
In assay [17] the test system is HCT-15.
The test system of assay [18] is MDA-MB-231.
Assay [19] concerns A498.
Assay [20] deals with Malme-3M.

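Cultured in 96-well plates, cells were exposed to test compound for 48 hours across five concentrations. Here, GI50 denotes the concentration required for 50% inhibition of growth.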 Calls of active or inactive are those of the source. Cut-off read from the data, not from the text of the source: active = GI50 up to about 1.1 µM and inactive = higher.

For the compound `Cc1c2cc[n+](C)cc2c(C)c2c1[nH]c1ccc(Cl)cc12`, the GI50 is 25 µM (inactive) in [1]; 1.26 µM (inactive) in assay [2]; 2.21 µM (inactive) in assay [3]; 3.78 µM (inactive) in assay [4]; 617 nM (active) in assay [5]; 7.11 µM (inactive) in [6]. Further, the GI50 is 3.98 µM (inactive) in assay [7]; 4.67 µM (inactive) in assay [8]; 197 nM (active) in assay [9]; 286 nM (active) in [10]; 272 nM (active) in assay [11]; 1.2 µM (inactive) in assay [12]. Besides, the GI50 is 1.02 µM (active) in assay [13]; 242 nM (active) in assay [14]; 274 nM (active) in [15]; 176 nM (active) in assay [16]; 5870 nM in assay [17]; 4.41 µM (inactive) in assay [18]. The GI50 was 282 nM (active) in assay [19] and 1.74 µM (inactive) in assay [20].
`CC(=O)[O-].[Zn+].c1ccc(/C(=N\Nc2ccccn2)c2ccccn2)cc1`: the GI50 is 0.01 µM (active) in [1]; 0.00535 µM (active) in assay [3]; 0.0653 µM (active) in assay [4]; 165 nM (active) in assay [5]; 0.426 µM (active) in assay [6]; 0.182 µM (active) in assay [7]. Also, the GI50 is 0.264 µM (active) in assay [8]; 344 nM (active) in assay [9]; 42.9 nM (active) in assay [10]; 92.9 nM (active) in [11]; 0.0615 µM (active) in [12]; 0.0374 µM (active) in assay [13]. In addition, the GI50 in [14] was 914 nM (active); in [15], 1060 nM (active); in [16], 67.6 nM (active); in [17] it was 13.7 nM; in [19] it was 1740 nM (inactive); in [20], 0.124 µM (active).
